According to patent US9029396B2, “Substituted indole derivatives” (Novartis AG, priority 2011, dated 2015):
Each block holds one molecule with its values, some of them ahead of it.

Key:
[1] = Chemical stability of amorphous and crystalline solid; type: physicochemical; settings: 1 week
PKC-theta = target: T1, PKC-theta (Homo sapiens, UniProt Q04759); assay: Protein kinase C theta assay (Caliper mobility shift); type: biochemical; settings: full length human recombinant enzyme, 70 μM ATP; read-out: PKCθ (IC50 in nM)
T1 construct: Both enzymes were full length human recombinant protein expressed in insect cells; purchased Invitrogen AG, Basel, Switzerland; host or cells: insect cells
Experimental: (§1) The compounds of the invention were tested for their activity on different PKC isotypes according to the following method. All assays were performed in 384 well microtiter plates. Each assay plate contained 8-point serial dilutions for 40 test compounds, as well as two 16-point serial dilutions of staurosporine as reference compound, plus 16 high- and 16 low controls. Liquid handling and incubation steps were done on a automated workstation equipped with a Innovadyne Nanodrop Express.
(§2) The assay plates were prepared by addition of 50 nL per well of compound solution in 90% DMSO. The kinase reactions were started by stepwise addition of 4.5 μl per well of a 2× peptide/ATP-solution and 4.5 μl per well of a 2× enzyme solution. The final concentration of reagents during kinase reaction were: 50 mM HEPES, pH 7.5, 1 mM DTT, 0.02% Tween20, 0.02% BSA, 0.6% DMSO, 10 mM beta-glycerophosphate, and 10 μM sodium orthovanadate. The peptide substrate used in the PKC-alpha and PKC-theta assays was Dy495-X5-ME-Mpr-RFARKGSLRQKNV-COOH. […]
(§3) Plates with terminated kinase reactions were transferred to the Caliper LC3000 workstations for reading. Phosphorylated and unphosphorylated peptides were separated using the Caliper microfluidic mobility shift technology and Kinase activities were calculated from the amounts of formed phospho-peptide.

[2] = Dog pharmacokinetics after oral administration of compound of example No. 1; type: in vivo, Beagle dogs
Experimental: A single dose of the compound of example 1 (3.0 mg/kg) was administered p.o. to 3 male Beagle dogs. Compound 1 was dosed as an aqueous suspension of the crystalline monohydrate form in Methylcellulose (0.5%): Tween 80 (1%) (90:10). Blood was taken in regular intervals by venipuncture, and the samples were analyzed for a period of up to 24 hours. The compounds of the examples 1, 2, and 3 were quantitatively assessed over time, and the results are tabulated below:
Key pharmacokinetic parameters (mean values±standard deviations (n=3) for 1, 2 and 3 after oral dosing of example No. 1.

[3] = Stability in gastric and intestinal simulated fluids at 37° C.; type: physicochemical
Experimental: Stability Assessments Stability of Cpd. Example No. 1 in Gastric and Intestinal Simulated Fluids at 37° C.:
Stability of compound Example No. 3
(Free form/acetate salt form) in gastric and intestinal simulated fluids at 37° C.: […]

PKC-alpha = target: T2, PKC-alpha (Homo sapiens, UniProt P17252); assay: Protein kinase C alpha assay (Caliper mobility shift); type: biochemical; settings: full length human recombinant enzyme, 17 μM ATP; read-out: PKCα (IC50 in nM)
T2 construct: Both enzymes were full length human recombinant protein expressed in insect cells; purchased Invitrogen AG, Basel, Switzerland; host or cells: insect cells
Experimental: as §1, §2, §3

[4] = dog, blood, po, male Beagle dogs, example 1 3.0 mg/kg p.o.

T1 sequence (Q04759 whole entry): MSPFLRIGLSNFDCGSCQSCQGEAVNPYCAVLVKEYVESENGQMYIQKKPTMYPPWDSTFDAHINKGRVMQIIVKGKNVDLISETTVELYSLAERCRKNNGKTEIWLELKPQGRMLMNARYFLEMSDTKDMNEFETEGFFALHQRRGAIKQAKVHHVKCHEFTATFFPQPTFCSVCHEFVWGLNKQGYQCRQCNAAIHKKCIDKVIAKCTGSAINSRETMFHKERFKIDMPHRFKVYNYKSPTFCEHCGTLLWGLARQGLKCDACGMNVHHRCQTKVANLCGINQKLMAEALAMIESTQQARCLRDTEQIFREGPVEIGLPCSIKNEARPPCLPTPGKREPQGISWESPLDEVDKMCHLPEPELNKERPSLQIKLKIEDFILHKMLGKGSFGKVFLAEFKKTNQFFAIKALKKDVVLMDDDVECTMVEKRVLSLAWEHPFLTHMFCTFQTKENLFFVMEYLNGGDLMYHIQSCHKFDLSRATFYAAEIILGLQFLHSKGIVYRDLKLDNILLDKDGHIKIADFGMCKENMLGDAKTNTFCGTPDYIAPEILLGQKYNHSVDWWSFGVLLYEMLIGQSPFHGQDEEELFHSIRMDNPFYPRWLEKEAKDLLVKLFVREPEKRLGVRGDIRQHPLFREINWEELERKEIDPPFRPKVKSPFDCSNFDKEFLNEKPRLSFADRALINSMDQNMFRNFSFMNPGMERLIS

Purity after exposure ([1]; Amorphous, initial purity 98.5 %, 50 ° C.): 95.8% | Purity after exposure ([1]; Amorphous, initial purity 98.5 %, 80 ° C.): 89.7% | Purity after exposure ([1]; Crystalline mono-hydrate, initial purity 100 %, 50 ° C.): 100% | Purity after exposure ([1]; Crystalline mono-hydrate, initial purity 100 %, 80 ° C.): 100% | IC50 (PKC-theta): 462 nM | Conversion of prodrug into parent compound in blood ([2]; after administration, example 3 is main component in blood after around an hour): is converted into compound of example 3 | concentration at 0.25 h [2, 4]: 3.1 nM | concentration at 0.5 h [2, 4]: 1.1 nM | Amount in Area % of compound example No. 1 ([3]; FaSSIF pH 6.5, 37° C., 0 hours): 95.1 Area % | Amount in Area % of compound example No. 1 ([3]; FaSSIF pH 6.5, 37° C., 1 hours): 93.8 Area % | Amount in Area % of compound example No. 1 ([3]; FaSSIF pH 6.5, 37° C., 2.5 hours): 92.3 Area % | Amount in Area % of compound example No. 1 ([3]; FaSSIF pH 6.5, 37° C., 4.2 hours): 90.5 Area % | Amount in Area % of compound example No. 1 ([3]; FaSSIF pH 6.5, 37° C., 7 hours): 87.7 Area % | Amount in Area % of compound example No. 1 ([3]; FeSSIF pH 5.8, 37° C., 0 hours): 95.0 Area % | Amount in Area % of compound example No. 1 ([3]; FeSSIF pH 5.8, 37° C., 1 hours): 94.9 Area % | Amount in Area % of compound example No. 1 ([3]; FeSSIF pH 5.8, 37° C., 2.5 hours): 94.8 Area % | Amount in Area % of compound example No. 1 ([3]; FeSSIF pH 5.8, 37° C., 4.2 hours): 94.8 Area % | Amount in Area % of compound example No. 1 ([3]; FeSSIF pH 5.8, 37° C., 7 hours): 94.8 Area % | Amount in Area % of compound example No. 1 ([3]; SGF pH 2, 37° C., 0 hours): 95.9 Area % | Amount in Area % of compound example No. 1 ([3]; SGF pH 2, 37° C., 1 hours): 95.5 Area % | Amount in Area % of compound example No. 1 ([3]; SGF pH 2, 37° C., 2.5 hours): 95.3 Area % | Amount in Area % of compound example No. 1 ([3]; SGF pH 2, 37° C., 4.2 hours): 95.6 Area % | Amount in Area % of compound example No. 1 ([3]; SGF pH 2, 37° C., 7 hours): 95.6 Area % | IC50 (PKC-alpha): 1680 nM
Structure (SMILES): Cc1cccc2c(C3=C(c4nc(N5CCNC6(CC6)C5)cc5ccccc45)C(=O)N(COP(=O)(O)O)C3=O)c[nH]c12 [Example 1, Phosphoric acid mono-[3-[3-(4,7-diaza-spiro[2.5]oct-7-yl)-isoquinolin-1-yl]-4-(7-methyl-1H-indol-3-yl)-2,5-dioxo-2,5-dihydro-pyrrol-1-ylmethyl]ester]

concentration at 0.083 h ([2]; dog, blood, po, male Beagle dogs, example 1 3.0 mg/kg p.o. (crystalline monohydrate suspension), 0.083 h): 10 nM | concentration at 0.25 h [2, 4]: 39.6 nM | concentration at 0.5 h [2, 4]: 31.3 nM | concentration at 0.75 h ([2]; dog, blood, po, male Beagle dogs, example 1 3.0 mg/kg p.o., 0.75 h): 19.1 nM | concentration at 1 h ([2]; dog, blood, po, male Beagle dogs, example 1 3.0 mg/kg p.o., 1 h): 6.3 nM | concentration at 2 h ([2]; dog, blood, po, male Beagle dogs, example 1 3.0 mg/kg p.o., 2 h): 7.7 nM | concentration at 3 h ([2]; dog, blood, po, male Beagle dogs, example 1 3.0 mg/kg p.o., 3 h): 1 nM | AUC d.n. ([2]; dose normalized, mean ± SD (n=3), after oral dosing of example No. 1 to dogs): low | Tmax ([2]; male, Beagle, dog, blood, 3 mg/kg, mean ± SD (n=3), after oral dosing of example No. 1 to dogs): 24 ± 6 min
Structure (SMILES): Cc1cccc2c(C3=C(c4nc(N5CCNC6(CC6)C5)cc5ccccc45)C(=O)N(CO)C3=O)c[nH]c12 [Example 2, 3-[3-(4,7-Diaza-spiro[2.5]oct-7-yl)-isoquinolin-1-yl]-1-hydroxymethyl-4-(7-methyl-1H-indol-3-yl)-pyrrole-2,5-dione]
